{"source": "PubChem BioAssay (NCI)", "test_in_all_cases": "NCI tumour cell line growth inhibition, 48 h", "key": {"[1]": {"tested_on": "HT29 colon"}, "[2]": {"tested_on": "SK-MEL-28 melanoma"}, "[3]": {"tested_on": "CAKI-1 renal"}, "[4]": {"tested_on": "SNB-19 CNS"}, "[5]": {"tested_on": "HOP-92 NSCLC"}, "[6]": {"tested_on": "SW-620 colon"}, "[7]": {"tested_on": "NCI-H23 lung"}, "[8]": {"tested_on": "M14 melanoma"}, "[9]": {"tested_on": "A498 renal"}, "[10]": {"tested_on": "786-0 renal"}, "[11]": {"tested_on": "SK-MEL-5 melanoma"}, "[12]": {"tested_on": "HL-60(TB) leukemia"}, "[13]": {"tested_on": "TK-10 renal"}, "[14]": {"tested_on": "SF-268 CNS"}, "[15]": {"tested_on": "SK-OV-3 ovarian"}, "[16]": {"tested_on": "LOX IMVI melanoma"}, "[17]": {"tested_on": "HCC-2998 colon"}, "[18]": {"tested_on": "UO-31 renal"}, "[19]": {"tested_on": "SK-MEL-2 melanoma"}, "[20]": {"tested_on": "MDA-MB-231 breast"}, "[21]": {"tested_on": "HOP-62 NSCLC"}, "[22]": {"tested_on": "RPMI-8226 leukemia"}, "[23]": {"tested_on": "DU-145 prostate"}, "[24]": {"tested_on": "NCI-H226 lung"}, "[25]": {"tested_on": "OVCAR-4 ovarian"}, "[26]": {"tested_on": "NCI/ADR-RES ovarian"}, "[27]": {"tested_on": "SF-539 CNS"}}, "note": "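Growth conditions: 96-well plates. Treatment: test compound, 48 hours, 5 concentrations. Analysis: linear interpolation between bracketing concentrations; unreached endpoints set to highest concentration. GI50 marks 50% less growth. TGI is the concentration that stops growth completely.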", "data": [{"compound": "CSc1ccc(C2=NN(c3ccccc3)C(c3ccc(-c4cc(Cl)c(Cl)cc4Cl)o3)C2)cc1", "note": "(centres undefined)", "values": [{"measurement": "GI50", "setting": "[1]", "result": "> 100", "unit": "µM"}, {"measurement": "TGI", "setting": "[1]", "result": "> 100", "unit": "µM"}, {"measurement": "GI50", "setting": "[2]", "result": "> 100", "unit": "µM"}, {"measurement": "TGI", "setting": "[2]", "result": "> 100", "unit": "µM"}, {"measurement": "GI50", "setting": "[3]", "result": "> 100", "unit": "µM"}, {"measurement": "TGI", "setting": "[3]", "result": "> 100", "unit": "µM"}, {"measurement": "GI50", "setting": "[4]", "result": 64.3, "unit": "µM"}, {"measurement": "TGI", "setting": "[4]", "result": "> 100", "unit": "µM"}, {"measurement": "GI50", "setting": "[5]", "result": 21, "unit": "µM"}, {"measurement": "TGI", "setting": "[5]", "result": 52.1, "unit": "µM"}, {"measurement": "GI50", "setting": "[6]", "result": "> 100", "unit": "µM"}, {"measurement": "TGI", "setting": "[6]", "result": "> 100", "unit": "µM"}, {"measurement": "GI50", "setting": "[7]", "result": "> 100", "unit": "µM"}, {"measurement": "TGI", "setting": "[7]", "result": "> 100", "unit": "µM"}, {"measurement": "GI50", "setting": "[8]", "result": "> 100", "unit": "µM"}, {"measurement": "TGI", "setting": "[8]", "result": "> 100", "unit": "µM"}, {"measurement": "GI50", "setting": "[9]", "result": "> 100", "unit": "µM"}, {"measurement": "TGI", "setting": "[9]", "result": "> 100", "unit": "µM"}, {"measurement": "GI50", "setting": "[10]", "result": "> 100", "unit": "µM"}, {"measurement": "TGI", "setting": "[10]", "result": "> 100", "unit": "µM"}, {"measurement": "GI50", "setting": "[11]", "result": "> 100", "unit": "µM"}, {"measurement": "TGI", "setting": "[11]", "result": "> 100", "unit": "µM"}, {"measurement": "GI50", "setting": "[12]", "result": "> 100", "unit": "µM"}, {"measurement": "TGI", "setting": "[12]", "result": "> 100", "unit": "µM"}, {"measurement": "GI50", "setting": "[13]", "result": "> 100", "unit": "µM"}, {"measurement": "TGI", "setting": "[13]", "result": "> 100", "unit": "µM"}, {"measurement": "GI50", "setting": "[14]", "result": 87.1, "unit": "µM"}, {"measurement": "TGI", "setting": "[14]", "result": "> 100", "unit": "µM"}, {"measurement": "GI50", "setting": "[15]", "result": 35.8, "unit": "µM"}, {"measurement": "TGI", "setting": "[15]", "result": "> 100", "unit": "µM"}, {"measurement": "GI50", "setting": "[16]", "result": "> 100", "unit": "µM"}, {"measurement": "TGI", "setting": "[16]", "result": "> 100", "unit": "µM"}, {"measurement": "GI50", "setting": "[17]", "result": "> 100", "unit": "µM"}, {"measurement": "TGI", "setting": "[17]", "result": "> 100", "unit": "µM"}, {"measurement": "GI50", "setting": "[18]", "result": "> 100", "unit": "µM"}, {"measurement": "TGI", "setting": "[18]", "result": "> 100", "unit": "µM"}, {"measurement": "GI50", "setting": "[19]", "result": "> 100", "unit": "µM"}, {"measurement": "TGI", "setting": "[19]", "result": "> 100", "unit": "µM"}, {"measurement": "GI50", "setting": "[20]", "result": "> 100", "unit": "µM"}, {"measurement": "TGI", "setting": "[20]", "result": "> 100", "unit": "µM"}, {"measurement": "GI50", "setting": "[21]", "result": 12.3, "unit": "µM"}, {"measurement": "TGI", "setting": "[21]", "result": "> 100", "unit": "µM"}, {"measurement": "GI50", "setting": "[22]", "result": "> 100", "unit": "µM"}, {"measurement": "TGI", "setting": "[22]", "result": "> 100", "unit": "µM"}, {"measurement": "GI50", "setting": "[23]", "result": "> 100", "unit": "µM"}, {"measurement": "TGI", "setting": "[23]", "result": "> 100", "unit": "µM"}, {"measurement": "GI50", "setting": "[24]", "result": "> 100", "unit": "µM"}, {"measurement": "TGI", "setting": "[24]", "result": "> 100", "unit": "µM"}, {"measurement": "GI50", "setting": "[25]", "result": "> 100", "unit": "µM"}, {"measurement": "TGI", "setting": "[25]", "result": "> 100", "unit": "µM"}, {"measurement": "GI50", "setting": "[26]", "result": "> 100", "unit": "µM"}, {"measurement": "TGI", "setting": "[26]", "result": "> 100", "unit": "µM"}, {"measurement": "GI50", "setting": "[27]", "result": 63.2, "unit": "µM"}, {"measurement": "TGI", "setting": "[27]", "result": "> 100", "unit": "µM"}]}]}
